pIC50: −log10 of the molar value.
System: 521955-158-R2-J5-PDC complex spheroid viability
Experiment: Anticancer human tumor 521955-158-R2-J5-PDC patient-derived pancreatic carcinoma cell line growth inhibition
Conditions: for pIC50: curve of first compound; for viability, T/C: stronger effect = lower value; active means viability on the fitted dose curve at most 10% of control; inactive means the rest
Summary of the method: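 Multicellular complex spheroids of tumor cells with human endothelial cells (HUVEC) and mesenchymal stem cells; the LSD1 inhibitor iadademstat was combined with standard-of-care or investigational agents. Top concentration at or near clinical Cmax, half-log dilutions; final DMSO ≤0.25%.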

[1] = second compound 0.1 µM, first compound 0.0316 µM
[2] = second compound 0.1 µM, first compound 0.1 µM
[3] = second compound 0.1 µM, first compound 0.316 µM
[4] = second compound 0.1 µM, first compound 1 µM
[5] = second compound 0.1 µM, first compound 3.16 µM
[6] = second compound 0.1 µM, first compound 10 µM
[7] = second compound 0.316 µM, first compound 0.0316 µM
[8] = second compound 0.316 µM, first compound 0.1 µM
[9] = second compound 0.316 µM, first compound 0.316 µM
[10] = second compound 0.316 µM, first compound 1 µM
[11] = second compound 0.316 µM, first compound 3.16 µM
[12] = second compound 0.316 µM, first compound 10 µM
[13] = second compound 1 µM, first compound 0.0316 µM
[14] = second compound 1 µM, first compound 0.1 µM
[15] = second compound 1 µM, first compound 0.316 µM
[16] = second compound 1 µM, first compound 1 µM
[17] = second compound 1 µM, first compound 3.16 µM
[18] = second compound 1 µM, first compound 10 µM
[19] = second compound 3.16 µM, first compound 0.0316 µM
[20] = second compound 3.16 µM, first compound 0.1 µM
[21] = second compound 3.16 µM, first compound 0.316 µM
[22] = second compound 3.16 µM, first compound 1 µM
[23] = second compound 3.16 µM, first compound 3.16 µM
[24] = second compound 3.16 µM, first compound 10 µM
[25] = second compound 10 µM, first compound 0.0316 µM
[26] = second compound 10 µM, first compound 0.1 µM
[27] = second compound 10 µM, first compound 0.316 µM
[28] = second compound 10 µM, first compound 1 µM
[29] = second compound 10 µM, first compound 3.16 µM
[30] = second compound 10 µM, first compound 10 µM
[31] = second compound 0.1 µM, first compound 0.00949 µM
[32] = second compound 0.1 µM, first compound 0.03 µM
[33] = second compound 0.1 µM, first compound 0.0949 µM
[34] = second compound 0.1 µM, first compound 0.3 µM
[35] = second compound 0.316 µM, first compound 0.00949 µM
[36] = second compound 0.316 µM, first compound 0.03 µM
[37] = second compound 0.316 µM, first compound 0.0949 µM
[38] = second compound 0.316 µM, first compound 0.3 µM
[39] = second compound 1 µM, first compound 0.00949 µM
[40] = second compound 1 µM, first compound 0.03 µM
[41] = second compound 1 µM, first compound 0.0949 µM
[42] = second compound 1 µM, first compound 0.3 µM
[43] = second compound 3.16 µM, first compound 0.00949 µM
[44] = second compound 3.16 µM, first compound 0.03 µM
[45] = second compound 3.16 µM, first compound 0.0949 µM
[46] = second compound 3.16 µM, first compound 0.3 µM
[47] = second compound 10 µM, first compound 0.00949 µM
[48] = second compound 10 µM, first compound 0.03 µM
[49] = second compound 10 µM, first compound 0.0949 µM
[50] = second compound 10 µM, first compound 0.3 µM
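Further: spheroids exposed to agents for seven days.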
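Wherever viability, T/C is given: percent of DMSO vehicle control luminescence viability.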

CC1(C)CCC(CN2CCN(c3ccc(C(=O)NS(=O)(=O)c4ccc(NCC5CCOCC5)c([N+](=O)[O-])c4)c(Oc4cnc5[nH]ccc5c4)c3)CC2)=C(c2ccc(Cl)cc2)C1 + NC1CC1c1ccc(-c2cccc(O)c2)cc1
active: viability, T/C [6] 0.69% | viability, T/C [12] 1.04% | viability, T/C [18] 0.96% | viability, T/C [24] 1.07% | viability, T/C [30] 0.78%
5.41: pIC50 (second compound 0.316 µM) | pIC50 (second compound 1 µM) | pIC50 (second compound 10 µM)
5.40: pIC50 (second compound 0.1 µM)
5.39: pIC50 (second compound 3.16 µM)
inactive: viability, T/C [1] 93.2% | viability, T/C [2] 86% | viability, T/C [3] 95.6% | viability, T/C [4] 92.8% | viability, T/C [5] 62.4% | viability, T/C [7] 81.4% | viability, T/C [8] 93.3% | viability, T/C [9] 91.6% | viability, T/C [10] 84.6% | viability, T/C [11] 60.4% | viability, T/C [13] 82% | viability, T/C [14] 92.6% | viability, T/C [15] 96.4% | viability, T/C [16] 86.9% | viability, T/C [17] 61% | viability, T/C [19] 87.9% | viability, T/C [20] 89.4% | viability, T/C [21] 99.4% | viability, T/C [22] 90.2% | viability, T/C [23] 63.7% | viability, T/C [25] 98.4% | viability, T/C [26] 103% | viability, T/C [27] 107% | viability, T/C [28] 86.6% | viability, T/C [29] 61.2%

CC1COCCN1c1cc(C2(S(C)(=N)=O)CC2)nc(-c2ccnc3[nH]ccc23)n1 (stereo not given) + NC1CC1c1ccc(-c2cccc(O)c2)cc1
6.18: pIC50 (second compound 1 µM)
6.23: pIC50 (second compound 3.16 µM)
6.25: pIC50 (second compound 0.1 µM) | pIC50 (second compound 10 µM)
6.27: pIC50 (second compound 0.316 µM)
inactive: viability, T/C [1] 82.3% | viability, T/C [2] 93.9% | viability, T/C [3] 77.7% | viability, T/C [4] 22.6% | viability, T/C [5] 15.7% | viability, T/C [6] 20.8% | viability, T/C [7] 84% | viability, T/C [8] 86.3% | viability, T/C [9] 74.5% | viability, T/C [10] 22.4% | viability, T/C [11] 15.2% | viability, T/C [12] 20.4% | viability, T/C [13] 83% | viability, T/C [14] 90.8% | viability, T/C [15] 87.6% | viability, T/C [16] 29.7% | viability, T/C [17] 15.9% | viability, T/C [18] 16.8% | viability, T/C [19] 81% | viability, T/C [20] 80.2% | viability, T/C [21] 78.5% | viability, T/C [22] 25.5% | viability, T/C [23] 14.9% | viability, T/C [24] 15.3% | viability, T/C [25] 88.8% | viability, T/C [26] 102% | viability, T/C [27] 69.8% | viability, T/C [28] 30.7% | viability, T/C [29] 14.9% | viability, T/C [30] 17.6%

CCN(c1cc(-c2ccc(CN3CCOCC3)cc2)cc(C(=O)NCc2c(C)cc(C)[nH]c2=O)c1C)C1CCOCC1 + NC1CC1c1ccc(-c2cccc(O)c2)cc1
< 5.52: pIC50 (second compound 0.1 µM) | pIC50 (second compound 0.316 µM) | pIC50 (second compound 1 µM) | pIC50 (second compound 3.16 µM) | pIC50 (second compound 10 µM)
inactive: viability, T/C [31] 98.8% | viability, T/C [32] 96.3% | viability, T/C [33] 87.4% | viability, T/C [34] 82.1% | viability, T/C (second compound 0.1 µM, first compound 0.949 µM) 86.8% | viability, T/C (second compound 0.1 µM, first compound 3 µM) 72.3% | viability, T/C [35] 89% | viability, T/C [36] 85.2% | viability, T/C [37] 82.4% | viability, T/C [38] 82.2% | viability, T/C (second compound 0.316 µM, first compound 0.949 µM) 82.2% | viability, T/C (second compound 0.316 µM, first compound 3 µM) 77.5% | viability, T/C [39] 75.5% | viability, T/C [40] 88.3% | viability, T/C [41] 88.4% | viability, T/C [42] 87.1% | viability, T/C (second compound 1 µM, first compound 0.949 µM) 79.8% | viability, T/C (second compound 1 µM, first compound 3 µM) 85.7% | viability, T/C [43] 91.2% | viability, T/C [44] 91.6% | viability, T/C [45] 92.4% | viability, T/C [46] 83.9% | viability, T/C (second compound 3.16 µM, first compound 0.949 µM) 70.9% | viability, T/C (second compound 3.16 µM, first compound 3 µM) 77.7% | viability, T/C [47] 83.4% | viability, T/C [48] 110% | viability, T/C [49] 92.2% | viability, T/C [50] 82.7% | viability, T/C (second compound 10 µM, first compound 0.949 µM) 80.3% | viability, T/C (second compound 10 µM, first compound 3 µM) 76.7%

Nc1ncn(C2CC(O)C(CO)S2)c(=O)n1 (stereo not given) + NC1CC1c1ccc(-c2cccc(O)c2)cc1
inactive: viability, T/C (second compound 0.1 µM, first compound 0.000949 µM) 90.7% | viability, T/C (second compound 0.1 µM, first compound 0.003 µM) 96.2% | viability, T/C [31] 90.1% | viability, T/C [32] 98% | viability, T/C [33] 85.2% | viability, T/C [34] 64.7% | viability, T/C (second compound 0.316 µM, first compound 0.000949 µM) 98.7% | viability, T/C (second compound 0.316 µM, first compound 0.003 µM) 94.3% | viability, T/C [35] 93.1% | viability, T/C [36] 89.5% | viability, T/C [37] 76.6% | viability, T/C [38] 69.2% | viability, T/C (second compound 1 µM, first compound 0.000949 µM) 98.4% | viability, T/C (second compound 1 µM, first compound 0.003 µM) 90% | viability, T/C [39] 94% | viability, T/C [40] 88.8% | viability, T/C [41] 90% | viability, T/C [42] 75.3% | viability, T/C (second compound 3.16 µM, first compound 0.000949 µM) 98.5% | viability, T/C (second compound 3.16 µM, first compound 0.003 µM) 101% | viability, T/C [43] 92.7% | viability, T/C [44] 91% | viability, T/C [45] 87.6% | viability, T/C [46] 69.9% | viability, T/C (second compound 10 µM, first compound 0.000949 µM) 99% | viability, T/C (second compound 10 µM, first compound 0.003 µM) 105% | viability, T/C [47] 100% | viability, T/C [48] 97.3% | viability, T/C [49] 90.3% | viability, T/C [50] 71.8%
< 6.52: pIC50 (second compound 0.1 µM) | pIC50 (second compound 0.316 µM) | pIC50 (second compound 1 µM) | pIC50 (second compound 3.16 µM) | pIC50 (second compound 10 µM)

— PubChem BioAssay AID1918937 (Molecular Pharmacology Branch, DTP, NCI, 2023)
